From patent US20050048508A1, “Trehalose receptor and method for detecting trehalose with the same” (KABUSHIKI KAISHA HAYASHIBARA SEIBUTSU KAGAKU KENKYUJO, priority 2002, published 2005)

Target: T1, T1R1 and T1R2 with G protein α-subunits (α15 and α16/Z chimeric protein) (Mus musculus, UniProt Q925I4+Q99PG6, E350G/G527D/P352R/R175Q)
T1 construct: expressed in transfected cells; host or cells: 293 cells, RCB 1637 (human embryonic kidney)
T1 sequence (Q99PG6 20-842 L120P/N244D/D281A/N309Y/P311T/S314P/H418Y): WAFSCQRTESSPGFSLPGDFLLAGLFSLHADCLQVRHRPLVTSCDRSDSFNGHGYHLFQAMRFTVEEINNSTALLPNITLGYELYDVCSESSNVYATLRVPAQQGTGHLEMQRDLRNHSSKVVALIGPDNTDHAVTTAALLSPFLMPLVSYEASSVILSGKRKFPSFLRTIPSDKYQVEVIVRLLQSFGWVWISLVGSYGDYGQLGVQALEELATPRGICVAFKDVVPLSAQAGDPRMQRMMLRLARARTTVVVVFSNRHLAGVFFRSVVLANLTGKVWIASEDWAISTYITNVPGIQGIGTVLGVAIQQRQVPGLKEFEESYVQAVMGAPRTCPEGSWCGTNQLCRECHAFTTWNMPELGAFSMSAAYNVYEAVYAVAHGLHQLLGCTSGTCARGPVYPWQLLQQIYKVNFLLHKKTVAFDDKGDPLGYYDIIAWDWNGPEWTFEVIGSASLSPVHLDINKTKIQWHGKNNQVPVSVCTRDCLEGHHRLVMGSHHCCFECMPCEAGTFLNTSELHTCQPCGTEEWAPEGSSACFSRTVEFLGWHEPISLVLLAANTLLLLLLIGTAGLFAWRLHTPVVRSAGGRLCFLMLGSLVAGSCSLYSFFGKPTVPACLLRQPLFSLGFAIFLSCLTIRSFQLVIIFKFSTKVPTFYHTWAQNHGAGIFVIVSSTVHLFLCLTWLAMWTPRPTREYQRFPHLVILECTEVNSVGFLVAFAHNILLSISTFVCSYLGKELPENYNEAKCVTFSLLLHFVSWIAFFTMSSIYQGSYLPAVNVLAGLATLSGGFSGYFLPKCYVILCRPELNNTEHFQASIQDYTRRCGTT
T1 sequence (Q925I4 20-843 R175Q/E350G/P352R/G527D): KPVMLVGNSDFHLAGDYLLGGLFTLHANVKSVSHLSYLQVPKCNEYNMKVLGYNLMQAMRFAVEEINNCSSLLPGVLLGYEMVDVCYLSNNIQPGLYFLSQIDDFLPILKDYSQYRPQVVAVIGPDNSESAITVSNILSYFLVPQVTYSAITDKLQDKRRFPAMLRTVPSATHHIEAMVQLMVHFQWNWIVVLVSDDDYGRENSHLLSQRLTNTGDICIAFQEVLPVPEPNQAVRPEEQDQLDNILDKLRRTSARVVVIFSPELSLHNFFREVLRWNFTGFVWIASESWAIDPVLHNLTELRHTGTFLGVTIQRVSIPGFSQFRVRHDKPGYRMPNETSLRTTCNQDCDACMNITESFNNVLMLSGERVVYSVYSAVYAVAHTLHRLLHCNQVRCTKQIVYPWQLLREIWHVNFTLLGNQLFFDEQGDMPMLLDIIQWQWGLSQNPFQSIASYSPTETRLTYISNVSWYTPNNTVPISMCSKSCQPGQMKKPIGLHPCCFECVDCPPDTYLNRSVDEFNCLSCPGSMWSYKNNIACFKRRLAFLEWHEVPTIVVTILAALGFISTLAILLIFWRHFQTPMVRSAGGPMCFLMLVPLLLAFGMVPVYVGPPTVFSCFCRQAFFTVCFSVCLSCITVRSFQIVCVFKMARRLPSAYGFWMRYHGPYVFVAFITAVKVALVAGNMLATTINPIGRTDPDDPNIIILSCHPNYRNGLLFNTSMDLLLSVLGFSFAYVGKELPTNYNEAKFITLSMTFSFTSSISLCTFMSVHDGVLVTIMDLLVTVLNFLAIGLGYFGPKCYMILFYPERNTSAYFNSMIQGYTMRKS
Test: Intracellular calcium ion assay, 293 cells coexpressing G protein α-subunits, T1R1 and T1R2
Assay type: cell-based
Conditions: 293 cells: T1R1 + T1R2 + G protein α-subunits; 0.67 ml of 1 M saccharide solution added to 2 ml cell suspension; FLUO-4 AM
Procedure: The coexpression vector for the G protein α-subunit α15 and the G protein α16/Z chimeric protein (hereinafter designated as “G protein α-subunits”) obtained in Example 1-3 was gene transferred to 293 cells, RCB 1637, a human embryonic kidney cell line, available from the Riken Bioresource Center, Ibaraki, Japan, by conventional lipofection. The gene transferred cells were suspended in Dulbecco's Modified Eagle's Medium (D-MEM) supplemented with 1 mg/L of “PUROMYCIN”, a trade mane of puromycin commercialized by Edge Biosystems, MD, USA, and 10% (v/v) of fetal calf serum to give a cell density of 2×10^6 cells/ml and cultured in a plastic petri dish for cell culture. […]
The captioned reactivity test was conducted according to a conventional intracellular calcium ion assay: 293 Cells prepared in Example 3, capable of coexpressing the G protein α-subunits and the sweet taste receptor(s), were cultured in a plastic petri dish for cell culture until reaching its confluent phase. […] Two milliliters of the resultant cell suspension was injected into a glass cuvette, commercialized by Hitachi, Ltd., Tokyo, Japan, and analyzed on “HITACHI 650-40”, a fluorescence spectrophotometer commercialized by Hitachi, Ltd., Tokyo, Japan. […]

Row | Structure (SMILES) | Influx of calcium ion
1 | OC[C@H]1O[C@H](O[C@H]2O[C@H](CO)[C@@H](O)[C@H](O)[C@H]2O)[C@H](O)[C@@H](O)[C@@H]1O [Trehalose] | Negative
2 | OC[C@H]1O[C@@](CO)(O[C@H]2O[C@H](CO)[C@@H](O)[C@H](O)[C@H]2O)[C@@H](O)[C@@H]1O [Sucrose, reference compound] | Negative
